Read-outs that look alike come from different tables or passages of the source.
B1: L7H: single histidine graft L7H on downhill folding protein gpW (protein, UniProt P68660 1-68, looked up, variant L7H)
Head completion protein: MTRQEEHAAARAALHDLMTGKRVATVQKDGRRVEFTATSVSDLKKYIAELEVQTGMTQRRRGPAGFYV

How the values were obtained:
[1] = target: receptor binding domain (RBD) of the SARS-CoV-2 spike protein (Severe acute respiratory syndrome coronavirus 2, UniProt P0DTC2); settings: cited from earlier work
[2] = Fluorescence spectroscopy of gpW FRET constructs upon pH titration
Description: Accordingly, the fluorescence integration was employed on this variant. Specifically, an extra cysteine was added at the N-terminal (N-ter), e.g., position 1, and the second cysteine was introduced near the C-terminal (C-ter) by replacing the methionine at position 56. These mutations allow us to chemically label the L7H with a FRET-pair to monitor the end-to-end distance of L7H (L7H-FRET). Another FRET-construct was also designed to measure the distance change between the beta-hairpin and the helix-1. […] In this regard, two cysteines were placed on the M18H-F35H variant by adding one cysteine at the N-ter (position 1) and replacing an aspartate (position 29) with cysteine. […] In both constructs, Alexa-488 maleimide and Alexa-594 maleimide are used as the FRET pair as they have many advantageous features. […]
Proteins samples were prepared at different pH by adding the labeled proteins 20 mM citrate buffer for experiments in the 3-6 pH range, phosphate buffer pH 7, and Tris-HCl buffer for the 8-9 pH range. […] Fluorescence emission spectra were recorded between 630 nm and 740 nm by exciting the ATTO 655 at 620 nm or between 490 nm and 720 nm by exciting the Alexa 488 at 480 nm. The pH titration on L7H-helix was triplicated, and L7H-Cter was replicated five times to calculate the standard deviation due to the concentration dependence of the PET fluorescence technique.

| Molecule | Kd ([1]; read-out: binding affinity (KD) to SARS-CoV-2 S protein) | Kd ([1]; read-out: binding affinity (Kd) to SARS-CoV-2 spike protein RBD) | distance change as a function of pH [2] |
| --- | --- | --- | --- |
| GSGSGSTIEEQAKTFLDKANCEAEDLAYQSSLAS [ACE-2 α-helix] | 1000 nM | 50 nM |  |
| B1 |  |  | less than 1 nm |
